# In PubChem BioAssay AID1963965 (Molecular Pharmacology Branch, DTP, NCI, 2024):
# System: 996289-038-R-J1-PDC spheroid viability
# Experiment: Anticancer human tumor 996289-038-R-J1-PDC patient-derived colon adenocarcinoma cell line growth inhibition [PI3K]
# Details: spheroids with HUVEC and MSC; for IC50: curve of first compound; for viability, T/C: stronger effect = lower value
# How it was run: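 Spheroid viability read-out. Co-cultures contained the tumor line plus HUVEC and human MSCs. Each agent was paired with a PI3K inhibitor (inavolisib, alpelisib, duvelisib, copanlisib) across half-log dilutions starting at clinical Cmax, or at 10 microM when Cmax was unknown.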
# 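Further: spheroids exposed to compounds for seven days before viability read.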
# 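Wherever viability, T/C is given: luminescence used as a proxy for viable cell amount; percent viability relative to DMSO vehicle control as 100%.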
compound,measurement,setting,value
CC(C)NCC(C(=O)N1CCN(c2ncnc3c2C(C)CC3O)CC1)c1ccc(Cl)cc1 (configuration not stated) + Cc1nc(NC(=O)N2CCCC2C(N)=O)sc1-c1ccnc(C(C)(C)C(F)(F)F)c1,IC50,second compound 0.0316 µM,> 10 µM
same,IC50,second compound 0.1 µM,> 10 µM
same,IC50,second compound 0.316 µM,> 10 µM
same,IC50,second compound 1 µM,> 10 µM
same,IC50,second compound 3.16 µM,5.06 µM
same,IC50,second compound 10 µM,< 0.0316 µM
same,"viability, T/C","second compound 0.0316 µM, first compound 0.0316 µM",82.8%
same,"viability, T/C","second compound 0.0316 µM, first compound 0.1 µM",92.3%
same,"viability, T/C","second compound 0.0316 µM, first compound 0.316 µM",85.9%
same,"viability, T/C","second compound 0.0316 µM, first compound 1 µM",97.7%
same,"viability, T/C","second compound 0.0316 µM, first compound 3.16 µM",85.2%
same,"viability, T/C","second compound 0.0316 µM, first compound 10 µM",66.7%
same,"viability, T/C","second compound 0.1 µM, first compound 0.0316 µM",82.4%
same,"viability, T/C","second compound 0.1 µM, first compound 0.1 µM",81%
same,"viability, T/C","second compound 0.1 µM, first compound 0.316 µM",97.9%
same,"viability, T/C","second compound 0.1 µM, first compound 1 µM",82.1%
same,"viability, T/C","second compound 0.1 µM, first compound 3.16 µM",82.1%
same,"viability, T/C","second compound 0.1 µM, first compound 10 µM",66.2%
same,"viability, T/C","second compound 0.316 µM, first compound 0.0316 µM",76.5%
same,"viability, T/C","second compound 0.316 µM, first compound 0.1 µM",88.8%
same,"viability, T/C","second compound 0.316 µM, first compound 0.316 µM",81.7%
same,"viability, T/C","second compound 0.316 µM, first compound 1 µM",69.2%
same,"viability, T/C","second compound 0.316 µM, first compound 3.16 µM",78.4%
same,"viability, T/C","second compound 0.316 µM, first compound 10 µM",54.5%
same,"viability, T/C","second compound 1 µM, first compound 0.0316 µM",68.7%
same,"viability, T/C","second compound 1 µM, first compound 0.1 µM",60.7%
same,"viability, T/C","second compound 1 µM, first compound 0.316 µM",67.8%
same,"viability, T/C","second compound 1 µM, first compound 1 µM",69.5%
same,"viability, T/C","second compound 1 µM, first compound 3.16 µM",59.5%
same,"viability, T/C","second compound 1 µM, first compound 10 µM",51%
same,"viability, T/C","second compound 3.16 µM, first compound 0.0316 µM",61%
same,"viability, T/C","second compound 3.16 µM, first compound 0.1 µM",60%
same,"viability, T/C","second compound 3.16 µM, first compound 0.316 µM",60.7%
same,"viability, T/C","second compound 3.16 µM, first compound 1 µM",59.1%
same,"viability, T/C","second compound 3.16 µM, first compound 3.16 µM",57%
same,"viability, T/C","second compound 3.16 µM, first compound 10 µM",40.1%
same,"viability, T/C","second compound 10 µM, first compound 0.0316 µM",45.7%
same,"viability, T/C","second compound 10 µM, first compound 0.1 µM",35.9%
same,"viability, T/C","second compound 10 µM, first compound 0.316 µM",43.5%
same,"viability, T/C","second compound 10 µM, first compound 1 µM",45.9%
same,"viability, T/C","second compound 10 µM, first compound 3.16 µM",34.3%
same,"viability, T/C","second compound 10 µM, first compound 10 µM",28.2%
